PMC8201255, “A Combined Experimental and Theoretical Study of Nitrofuran Antibiotics: Crystal Structures, DFT Computations, Sublimation and Solution Thermodynamics” (Molecules, 2021)
Read-outs that look alike come from different tables or passages of the source. One block for each compound: values may come before it.

Key:
[1] = 298.15 K, cited from earlier work
[2] = Experimental: Details of the technique are given in the literature. In brief: a flow of the inert gas (N2) through the tube transported the saturated vapor of the sample under investigation at a constant temperature and flow rate. The sample vapor is completely condensed at some point downstream. The sample vapor pressure at this temperature was calculated from the sublimated sample amount and the volume of the inert gas used. The mass of sublimated substance was determined using a spectrophotometer method by means of spectrophotometer Cary-50 (Varian, Australia).
The equipment was calibrated with benzoic acid, as specified in earlier work of our research group.
Absolute vapor pressures for compounds are usually approximated by the Clarke–Glew equation [38].
The value of the sublimation enthalpy is calculated by the Clausius–Clayperon equation:(7) ΔcrgHm0(T)=−R⋅(∂(lnp)/∂(1/T))
The sublimation entropy at a given temperature T is calculated by the following relation:(8) ΔcrgSm0(T)=(ΔcrgHm0(T)−ΔcrgGm0(T))/T with ΔcrgGm0(T)=−RTln(p/p0) , where p0 is the standard pressure (1 × 10^5 Pa).
For experimental reasons, the sublimation data are obtained at high temperatures. However, in comparison with the effusion methods, the temperatures are much lower, which makes extrapolation to room conditions easier.
Van der Waals molecular volumes ( V^vdw ) were estimated by the program GEPOL [50] using atom radiuses proposed by Kitaigorodskii. The free molecular volume in the crystal lattice was calculated on the basis of the single crystal X-ray diffraction data:(14) V^free=V^mol−V^vdw where V^mol is the molecular volume in crystal lattice, which is estimated by the equation:(15) V^mol=V^cell/Z where V^cell is the unit cell volume and Z is the number of molecules in the unit cell.

[3] = for TΔSsol0 / ΔGsol0 / ΔHsol0 / ΔSsol0: dissolution; for ςHsolv: relative fraction of solvation enthalpy; for ςTSsolv: relative fraction of solvation entropy; for TΔSsolv0 / ΔGsolv0 / ΔHsolv0 / ΔSsolv0: solvation
[4] = for solubility X2·10^5: p = 0.1 MPa, value is X2·10^5
Experimental: All the solubility experiments were carried out using the analytical isothermal shake-flask method. […] In brief, an excess amount of API was added to triplicate Pyrex glass tubes containing the respective dissolution media. […] The concentrations of the dissolved APIs were measured spectrophotometrically using a Cary 50 UV-vis spectrophotometer (Varian, Australia) with an accuracy of 2–4%.
Conversion of molarity to mole fraction concentration scale was produced using Equation (10):(10) X2=M2S2/S2(M2−M1)+1000ρ where S2 is molarity of API (mol·L^−1), M1 and M2 are the molar masses of solvent and solute, respectively, and ρ (g·cm^−3) is the density of the pure solvents. The mole fraction solubilities for buffer solutions were calculated taking into account the buffer compositions. Densities of buffer solutions (pH 2.0 and 7.4) were measured and published early.
The results are stated as the average of at least three replicated experiments.

Remark: listed apart in the source
[5] = ref Koradia et al. [34]; cited from earlier work
[6] = buffer pH 2.0, 298.15 K (Table 5)
[7] = buffer pH 7.4, 298.15 K (Table 5)

Compound: O=C1CNC(=O)N1 [2,4-Imidazolidinedione]
- Δgcr Hm0 (298.15) ([1]; ref [7]): 27.8 kcal/mol
- ΔgcrGm0 (298.15) ([1]; ref [7]): 13.8 kcal/mol

Compound: O=C1CNC(=S)N1 [2-Thiohydantoin]
- Δgcr Hm0 (298.15) ([1]; ref [7]): 28.47 kcal/mol
- ΔgcrGm0 (298.15) ([1]; ref [7]): 14.4 kcal/mol

Compound: O=C1NCCN1 [2-imadazolidinone]
- Δgcr Hm0 (298.15) ([1]; ref [5]): 20 kcal/mol
- ΔgcrGm0 (298.15) ([1]; ref [5]): 10.2 kcal/mol

Compound: O=Cc1ccc(-c2ccc([N+](=O)[O-])cc2)o1 [5-(4-nitrophenyl)-furan-2-carbaldehyde]
- Δgcr Hm0 (298.15) ([1]; ref [8]): 32.48 kcal/mol
- ΔgcrGm0 (298.15) ([1]; ref [8]): 15.6 kcal/mol

- 298.15⋅ΔcrgSm0(298.15K) ([2]; 298.15 K): 14.7 kcal/mol
- ΔcrgGm0(298.15), sublimation Gibbs energy ([2]; 298.15 K): 20.4 kcal/mol
- ΔcrgHm0(298.15K), sublimation enthalpy ([2]; 298.15 K): 35.01 ± 0.17 kcal/mol
- ΔcrgSm0(298.15K), sublimation entropy ([2]; 298.15 K): 205.5 ± 2.8 J·mol^−1·K^−1
- ΔcrgHm0(T), sublimation enthalpy ([2]; at experimental temperature T): 33.44 ± 0.17 kcal/mol
- ςH ([2]; enthalpy term of sublimation, 298.15 K): 70.5%
- ςTS ([2]; entropy term of sublimation, 298.15 K): 29.5%
- p(298.15K), saturated vapor pressure ([2]; extrapolated to 298.15 K): 1.19·10^−10 Pa
- β = V^free/V^vdw ([2]; free volume in the crystal lattice over van der Waals volume): 36.3%
- TΔSsol0 ([3]; 1-octanol, 298.15 K): 4.18 kcal/mol
- ΔGsol0 ([3]; 1-octanol, 298.15 K): 6.07 kcal/mol
- ΔHsol0 ([3]; 1-octanol, 298.15 K): 10.2 ± 0.406 kcal/mol
- ΔSsol0 ([3]; 1-octanol, 298.15 K): 58.5 ± 2.5 J·K^−1·mol^−1
- TΔSsol0 ([3]; buffer pH 2.0, 298.15 K): -0.22 kcal/mol
- ΔGsol0 ([3]; buffer pH 2.0, 298.15 K): 6.57 kcal/mol
- ΔHsol0 ([3]; buffer pH 2.0, 298.15 K): 6.36 ± 0.669 kcal/mol
- ΔSsol0 ([3]; buffer pH 2.0, 298.15 K): −3.1 ± 3.7 J·K^−1·mol^−1
- TΔSsol0 ([3]; buffer pH 7.4, 298.15 K): 2.84 kcal/mol
- ΔGsol0 ([3]; buffer pH 7.4, 298.15 K): 6.12 kcal/mol
- ΔHsol0 ([3]; buffer pH 7.4, 298.15 K): 8.96 ± 0.454 kcal/mol
- ΔSsol0 ([3]; buffer pH 7.4, 298.15 K): 39.9 ± 2.7 J·K^−1·mol^−1
- ςHsolv ([3]; 1-octanol, 298.15 K): 70.3%
- ςHsolv ([3]; buffer pH 2.0, 298.15 K): 65.8%
- ςHsolv ([3]; buffer pH 7.4, 298.15 K): 68.8%
- ςTSsolv ([3]; 1-octanol, 298.15 K): 29.7%
- ςTSsolv ([3]; buffer pH 2.0, 298.15 K): 34.2%
- ςTSsolv ([3]; buffer pH 7.4, 298.15 K): 31.2%
- TΔSsolv0 ([3]; 1-octanol, 298.15 K): -10.5 kcal/mol
- ΔGsolv0 ([3]; 1-octanol, 298.15 K): -14.3 kcal/mol
- ΔHsolv0 ([3]; 1-octanol, 298.15 K): -24.78 kcal/mol
- ΔSsolv0 ([3]; 1-octanol, 298.15 K): −147.0 J·K^−1·mol^−1
- TΔSsolv0 ([3]; buffer pH 2.0, 298.15 K): -14.9 kcal/mol
- ΔGsolv0 ([3]; buffer pH 2.0, 298.15 K): -13.8 kcal/mol
- ΔHsolv0 ([3]; buffer pH 2.0, 298.15 K): -28.66 kcal/mol
- ΔSsolv0 ([3]; buffer pH 2.0, 298.15 K): −208.6 J·K^−1·mol^−1
- TΔSsolv0 ([3]; buffer pH 7.4, 298.15 K): -11.8 kcal/mol
- ΔGsolv0 ([3]; buffer pH 7.4, 298.15 K): -14.2 kcal/mol
- ΔHsolv0 ([3]; buffer pH 7.4, 298.15 K): -26.05 kcal/mol
- ΔSsolv0 ([3]; buffer pH 7.4, 298.15 K): −165.6 J·K^−1·mol^−1
- X2 (solubility) ([4]; 1-octanol, 298.15 K (Table 5)): 3.61·10^5 mol.frac.
- solubility X2·10^5 ([4]; 1-octanol, 298.15 K): 3.61 mol. frac.
- solubility X2·10^5 ([4]; 1-octanol, 303.15 K): 4.97 mol. frac.
- solubility X2·10^5 ([4]; 1-octanol, 308.15 K): 6.53 mol. frac.
- solubility X2·10^5 ([4]; 1-octanol, 313.15 K): 8.26 mol. frac.
- X2 (solubility) [4, 6]: 1.49·10^5 mol.frac.
- solubility X2·10^5 ([4]; buffer pH 2.0, 298.15 K): 1.49 mol. frac.
- solubility X2·10^5 ([4]; buffer pH 2.0, 303.15 K): 1.82 mol. frac.
- solubility X2·10^5 ([4]; buffer pH 2.0, 308.15 K): 2.26 mol. frac.
- solubility X2·10^5 ([4]; buffer pH 2.0, 313.15 K): 2.46 mol. frac.
- X2 (solubility) [4, 7]: 3.28·10^5 mol.frac.
- solubility X2·10^5 ([4]; buffer pH 7.4, 298.15 K): 3.28 mol. frac.
- solubility X2·10^5 ([4]; buffer pH 7.4, 303.15 K): 4.33 mol. frac.
- solubility X2·10^5 ([4]; buffer pH 7.4, 308.15 K): 5.51 mol. frac.
- solubility X2·10^5 ([4]; buffer pH 7.4, 313.15 K): 6.72 mol. frac.
Compound: O=C1CN(/N=C/c2ccc([N+](=O)[O-])o2)C(=O)N1 [NFT, nitrofurantoin]

Compound: O=C1CCC(=O)N1 [Succinimide]
- Δgcr Hm0 (298.15) ([1]; ref [6]): 20 kcal/mol
- ΔgcrGm0 (298.15) ([1]; ref [6]): 8.77 kcal/mol

- ΔHw, vaporization enthalpy of water from the crystal (from DSC and TG, Equation (4)): 14.4 kcal/mol
- sublimation enthalpy computed using Equation (5) (thermodynamic cycle: sublimation enthalpy of NFT + ΔHw): 47.85 kcal/mol
- TΔSsol0 ([3]; buffer pH 2.0, 298.15 K): 5.04 kcal/mol
- ΔGsol0 ([3]; buffer pH 2.0, 298.15 K): 7 kcal/mol
- ΔHsol0 ([3]; buffer pH 2.0, 298.15 K): 12.1 ± 0.406 kcal/mol
- ΔSsol0 ([3]; buffer pH 2.0, 298.15 K): 70.9 ± 2.6 J·K^−1·mol^−1
- TΔSsol0 ([3]; buffer pH 7.4, 298.15 K): 10.6 kcal/mol
- ΔGsol0 ([3]; buffer pH 7.4, 298.15 K): 6.41 kcal/mol
- ΔHsol0 ([3]; buffer pH 7.4, 298.15 K): 17.2 ± 0.287 kcal/mol
- ΔSsol0 ([3]; buffer pH 7.4, 298.15 K): 148.5 ± 2.0 J·K^−1·mol^−1
- difference between equilibrium solubility of the monohydrate and solubility of anhydrous NFT ([4]; 313.15 K): ≤ 15%
- X2 (solubility) [4, 6]: 0.73·10^5 mol.frac.
- solubility X2·10^5 ([4]; buffer pH 2.0, 298.15 K): 0.73 mol. frac.
- solubility X2·10^5 ([4]; buffer pH 2.0, 303.15 K): 1.07 mol. frac.
- solubility X2·10^5 ([4]; buffer pH 2.0, 308.15 K): 1.43 mol. frac.
- solubility X2·10^5 ([4]; buffer pH 2.0, 313.15 K): 1.96 mol. frac.
- X2 (solubility) [4, 7]: 1.98·10^5 mol.frac.
- solubility X2·10^5 ([4]; buffer pH 7.4, 303.15 K): 2.34 mol. frac.
- solubility X2·10^5 ([4]; buffer pH 7.4, 308.15 K): 3.83 mol. frac.
- solubility X2·10^5 ([4]; buffer pH 7.4, 313.15 K): 5.90 mol. frac.
Compound: O.O=C1CN(/N=C/c2ccc([N+](=O)[O-])o2)C(=O)N1 [[NFT + H2O], nitrofurantoin monohydrate]
- activation energy of dehydration process [5]: 46.8 to 47.1 kcal/mol
